Laboratory results published in patent publication US20090010888A1, “Use of cytochrome P450 reductase as insecticidal target” (priority 2004, published 2009).
Where “and” joins values, the source holds several entries; their conditions need not be identical. Equal entries are not always repeated. Where two headings read alike, the source gives them in different places.

Legend:
human CPR = molecular target: T1, human CPR (Homo sapiens, UniProt P16435); assay: Cytochrome c reduction by purified human CPR (inhibition and kinetics); type: biochemical; conditions: for IC50: 25° C., 50 μM cytochrome c, 15 μM NADPH
T1 sequence (P16435 43-677 limits assumed): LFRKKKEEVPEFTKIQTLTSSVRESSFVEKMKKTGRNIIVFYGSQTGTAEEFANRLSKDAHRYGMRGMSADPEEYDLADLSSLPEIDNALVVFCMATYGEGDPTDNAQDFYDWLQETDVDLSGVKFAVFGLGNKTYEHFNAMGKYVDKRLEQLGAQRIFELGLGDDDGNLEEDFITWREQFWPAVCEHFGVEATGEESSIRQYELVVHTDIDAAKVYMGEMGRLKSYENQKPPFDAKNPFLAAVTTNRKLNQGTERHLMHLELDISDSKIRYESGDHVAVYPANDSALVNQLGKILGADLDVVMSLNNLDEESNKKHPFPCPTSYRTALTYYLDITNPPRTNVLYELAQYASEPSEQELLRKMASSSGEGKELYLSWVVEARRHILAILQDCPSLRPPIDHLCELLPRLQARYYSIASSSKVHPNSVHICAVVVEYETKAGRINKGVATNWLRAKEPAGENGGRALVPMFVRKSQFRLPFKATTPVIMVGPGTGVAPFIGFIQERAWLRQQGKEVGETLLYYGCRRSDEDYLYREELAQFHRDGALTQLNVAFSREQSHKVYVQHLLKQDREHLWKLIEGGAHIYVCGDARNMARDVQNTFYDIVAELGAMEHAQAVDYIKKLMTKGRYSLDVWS
Protocol: (§1) Errors are deviation from the fit of the curve (GraFit 5.06).
(§2) Cytochrome c assays and enzyme kinetic measurements were carried out 25° C. as described^19, using 0.75 pmol purified AgCPR or hCPR. Apparent kinetic parameters (non-linear fitting: Michaelis-Menten equation) and IC50 values were calculated using GraFit version 5.06.

[1] = system: A. gambiae CYP6Z2 and AgCPR; assay: 7-benzyloxyresorufin (BR) dealkylation, E. coli membranes coexpressing CYP6Z2 and AgCPR; conditions: read-out: IC50 for inhibition of mosquito CYP6Z2 BR dealkylation; 5 μM BR, 125 microM NADPH, 37° C.
Protocol: (§3) Measurement of P450 activity was carried out using E. coli membranes coexpressing A. gambiae CYP6Z2 and AgCPR or human CYP3A4 and human CPR. […] Rates were recorded for 5 min at 37° C. using a fluorescence plate reader (Labsystems Fluoroskan Ascent-FL) set to measure λEx 530 λEm585 (BR assay) or λEx 405 λEm530 (BQ assay). Percentage activities were calculated and IC50 curves were plotted using GraFit version 5.
(§4) For P450 assays, E. coli membranes co-expressing human CYP3A4 and CPR were produced as described. […] Plates were preincubated for 5 min at 37° C. before addition of 5 μl of 5 mM NADPH. Rates were recorded for 5 min at 37° C. using a fluorescence plate reader (Labsystems Fluoroskan Ascent-FL) set to measure λEx 530 λEm585 (BR assay) or λEx 405 λEm530 (BQ assay).
(§5) Percentage activities were calculated and IC50 curves were plotted using GraFit version 5.

[2] = molecular target: T2, human CYP3A4 and human CPR (Homo sapiens, UniProt P16435)
T2 sequence (P16435 1-677): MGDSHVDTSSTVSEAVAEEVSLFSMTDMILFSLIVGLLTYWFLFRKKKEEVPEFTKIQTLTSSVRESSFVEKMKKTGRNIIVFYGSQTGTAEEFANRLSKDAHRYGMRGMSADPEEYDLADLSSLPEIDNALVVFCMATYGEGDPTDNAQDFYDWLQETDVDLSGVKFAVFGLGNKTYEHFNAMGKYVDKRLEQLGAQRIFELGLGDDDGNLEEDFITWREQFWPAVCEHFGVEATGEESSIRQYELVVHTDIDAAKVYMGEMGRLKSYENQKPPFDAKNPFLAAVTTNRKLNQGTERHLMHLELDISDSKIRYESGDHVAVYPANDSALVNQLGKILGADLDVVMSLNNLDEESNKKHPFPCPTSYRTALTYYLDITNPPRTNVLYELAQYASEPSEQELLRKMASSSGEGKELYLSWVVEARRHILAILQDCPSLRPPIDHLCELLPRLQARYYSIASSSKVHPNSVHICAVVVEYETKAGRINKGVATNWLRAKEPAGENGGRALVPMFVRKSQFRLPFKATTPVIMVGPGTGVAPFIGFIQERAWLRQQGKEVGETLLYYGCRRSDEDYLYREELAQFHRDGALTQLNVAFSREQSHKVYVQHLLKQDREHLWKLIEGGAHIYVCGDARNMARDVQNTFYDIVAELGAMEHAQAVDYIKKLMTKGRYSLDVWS
Protocol: as §3, §4, §5

A. gambiae CPR [3] = molecular target: T3, A. gambiae CPR (Anopheles gambiae, UniProt Q86QH5, H459Y/V230A); assay: 2′-5′-ADP Sepharose binding of CPR from whole fly extracts; conditions: crude extracts of A. gambiae
T3 sequence (Q86QH5 entry or part of it V230A/H459Y): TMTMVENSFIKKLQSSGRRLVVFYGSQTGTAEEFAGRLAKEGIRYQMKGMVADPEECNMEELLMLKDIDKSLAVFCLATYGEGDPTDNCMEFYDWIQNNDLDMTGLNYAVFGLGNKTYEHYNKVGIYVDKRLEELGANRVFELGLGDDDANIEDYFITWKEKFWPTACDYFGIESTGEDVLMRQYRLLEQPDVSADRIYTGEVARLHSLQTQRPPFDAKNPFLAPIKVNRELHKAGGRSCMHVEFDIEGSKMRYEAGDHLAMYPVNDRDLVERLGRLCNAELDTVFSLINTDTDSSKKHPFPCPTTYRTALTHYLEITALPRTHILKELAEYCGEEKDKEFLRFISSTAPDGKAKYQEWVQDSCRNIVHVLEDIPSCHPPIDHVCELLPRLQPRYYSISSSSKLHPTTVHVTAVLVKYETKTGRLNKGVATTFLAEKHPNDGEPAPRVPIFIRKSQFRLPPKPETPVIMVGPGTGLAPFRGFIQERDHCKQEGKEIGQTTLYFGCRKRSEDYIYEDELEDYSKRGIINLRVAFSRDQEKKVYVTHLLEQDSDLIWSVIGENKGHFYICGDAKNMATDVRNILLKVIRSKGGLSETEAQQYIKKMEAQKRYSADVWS
Protocol: 0.1 g of frozen adult A. gambiae or D. melanogaster flies were added to a pre-chilled mortar and ground to a powder in the presence of liquid nitrogen. The powder was transferred to a 50 ml Falcon tube and 2.5 mls of cold solubilisation buffer (20 mM Tris-Cl pH 8; 10% glycerol; 100 mM KCl and 20 mM CHAPS) added. The suspensions were mixed on a rotary wheel at 4° C. for 2 hrs to solubilise the membrane bound proteins, then centrifuged (5 min; 12,000 rpm; 4° C.) to clarify. […] The clarified whole fly protein extracts were applied to the column and the flow-through collected. The column was washed with 5 ml of solubilisation buffer to remove non-binding proteins. To elute the bound proteins, 3×200 μl of 50 mM 2′ AMP in 0.5×solubilisation buffer was added to the mini-columns, and the 3×200 μl elution fractions collected in Eppendorf tubes. To detect CPR, 25 μl each of solubilised pre-column extract (total fly protein); flow through (unbound protein) and eluted proteins were run on a NuPAGE 4-12% Bis-Tris Gel (Invitrogen; UK) and transferred onto Protran® nitrocellulose membrane (Schleicher & Schuell; Germany) according to the manufacturer's instructions. The membrane was blocked overnight at 4° C. in TBST & 5% milk powder, then incubated for 1 hr with a 1:10000 dilution of anti-Ag CPR primary antibody. […]

A. gambiae CPR [4] = molecular target: T3, A. gambiae CPR; assay: biochemical; type: biochemical
Protocol: as §1, §2

## 2′,5′-ADP [2′-5′-ADP]
Human CPR; human CPR
  IC50: 28 µM
[1]
  IC50: 234 µM
[2]
  IC50: 10 µM
A. gambiae CPR [3]
  binding of CPR to 2′-5′-ADP (Sepharose): does not bind

## c1ccc([I+]c2ccccc2)cc1 [DPI, diphenyliodonium chloride]
A. gambiae CPR [4]
  IC50: 28 µM
Human CPR; human CPR
  IC50: 361 µM

## NC(=O)C1=CN([C@@H]2O[C@H](COP(=O)(O)OP(=O)(O)OC[C@H]3O[C@@H](n4cnc5c(N)ncnc54)[C@H](OP(=O)(O)O)[C@@H]3O)[C@@H](O)[C@H]2O)C=CC1 [NADPH, reduced form of nicotinamide adenine dinucleotide phosphate]
A. gambiae CPR [4]; read-out: Km NADPH (apparent)
  Km: 30 µM
Human CPR; human CPR, read-out: Km NADPH (apparent)
  Km: 14 µM and 15 µM

## cytochrome c
A. gambiae CPR [4]; mosquito enzyme, read-out: Km cytc
  Km: 23 µM
Human CPR; human enzyme, read-out: Km cytc
  Km: 19 µM
